In PubChem BioAssay AID248 (DTP/NCI, 2004):
Inconclusive results and toxic doses are left out. Cut-off read from the data, not from the text of the source: active = T/C of 150% or more; inactive = T/C below 125%.

System: L1210 leukemia ip in BDF1 mice, survival T/C
Test: NCI In Vivo Anticancer Drug Screen. Data for tumor model L1210 Leukemia (intraperitoneal) in B6D2F1 (BDF1) mice
Conditions: endpoint: mean survival time, higher = longer survival
How it was run: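 Transplanted-tumor mice were given test agent; controls received vehicle only. Survival readings from the two groups were divided (treated over control).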

[1] = dose: 100.0 mg/kg/injection, schedule: Q01DX001 (ip), vehicle: saline
[2] = dose: 100.0 mg/kg/injection, schedule: Q01DX009 (ip), vehicle: Klucel (hydroxypropylcellulose) (HPC)
[3] = dose: 200.0 mg/kg/injection, schedule: Q01DX009 (ip), vehicle: Klucel (hydroxypropylcellulose) (HPC)
[4] = dose: 400.0 mg/kg/injection, schedule: Q01DX009 (ip), vehicle: Klucel (hydroxypropylcellulose) (HPC)
[5] = dose: 50.0 mg/kg/injection, schedule: Q01DX001 (ip), vehicle: carboxymethylcellulose (CMC)
[6] = dose: 100.0 mg/kg/injection, schedule: Q01DX009 (ip), vehicle: saline with Tween-80
[7] = dose: 200.0 mg/kg/injection, schedule: Q01DX009 (ip), vehicle: saline with Tween-80
[8] = dose: 200.0 mg/kg/injection, schedule: Q01DX001 (ip), vehicle: saline
[9] = dose: 400.0 mg/kg/injection, schedule: Q01DX001 (ip), vehicle: saline
[10] = dose: 50.0 mg/kg/injection, schedule: Q01DX001 (ip), vehicle: saline
[11] = dose: 25.0 mg/kg/injection, schedule: Q01DX009 (ip), vehicle: saline with Tween-80
[12] = dose: 50.0 mg/kg/injection, schedule: Q01DX009 (ip), vehicle: saline with Tween-80
[13] = dose: 300.0 mg/kg/injection, schedule: Q01DX001 (ip), vehicle: saline
[14] = dose: 100.0 mg/kg/injection, schedule: Q01DX001 (ip), vehicle: carboxymethylcellulose (CMC)
[15] = dose: 200.0 mg/kg/injection, schedule: Q01DX001 (ip), vehicle: carboxymethylcellulose (CMC)

Measured: T/C

N=C(N)SCC(CSC(=N)N)c1cnnc2ccccc12 (configuration not stated)
inactive: [1] 102 % of control

O=[N+]([O-])c1[nH]c(Br)c(Br)c1Br
inactive: dose: 0.75 mg/kg/injection, schedule: Q01DX009 (ip), vehicle: Klucel (hydroxypropylcellulose) (HPC) 92 % of control | dose: 1.5 mg/kg/injection, schedule: Q01DX009 (ip), vehicle: Klucel (hydroxypropylcellulose) (HPC) 89 % of control | dose: 3.0 mg/kg/injection, schedule: Q01DX009 (ip), vehicle: Klucel (hydroxypropylcellulose) (HPC) 89 % of control

Cc1cc2oc(/C=N/Nc3ccc([N+](=O)[O-])cc3[N+](=O)[O-])c(C)c2cc1C
inactive: [2] 94 % of control | [3] 94 % of control | [4] 89 % of control

ClCCN(CCCl)c1ccc(CNCCCNCc2ccc(N(CCCl)CCCl)cc2Cl)c(Cl)c1
inactive: [5] 93 % of control

CCOC(=O)c1nc2cc(C)c(C)cc2[nH]c1=O
inactive: dose: 100.0 mg/kg/injection, schedule: Q04DX003 (ip), vehicle: saline with Tween-80 92 % of control | dose: 200.0 mg/kg/injection, schedule: Q04DX003 (ip), vehicle: saline with Tween-80 99 % of control | dose: 400.0 mg/kg/injection, schedule: Q04DX003 (ip), vehicle: saline with Tween-80 93 % of control

c1ccc(Nc2nnnn2C2CCCCC2)cc1
inactive: dose: 100.0 mg/kg/injection, schedule: Q01DX001 (ip), vehicle: saline with Tween-80 104 % of control | dose: 200.0 mg/kg/injection, schedule: Q01DX001 (ip), vehicle: saline with Tween-80 95 % of control | dose: 400.0 mg/kg/injection, schedule: Q01DX001 (ip), vehicle: saline with Tween-80 93 % of control

CC(C)(C)Sc1cccnc1
inactive: [6] 94 % of control | [7] 98 % of control

Nc1nc(N)c(-c2ccc(Cl)cc2)c(CO)n1
inactive: [1] 93 % of control | [8] 104 % of control | [9] 95 % of control

Cc1ccc(C(=O)c2ccc([N+](=O)[O-])cc2)cc1
inactive: [10] 103 % of control | [1] 101 % of control | [8] 92 % of control | [9] 114 % of control

Nc1nc(N)c(N=Nc2ccc([As](=O)(O)O)c(O)c2)c(N)n1
inactive: [1] 92 % of control | [8] 92 % of control | [9] 100 % of control

c1ccc(OCCOCCOc2ccccc2)cc1
inactive: dose: 75.0 mg/kg/injection, schedule: Q01DX009 (ip), vehicle: Klucel (hydroxypropylcellulose) (HPC) 96 % of control | dose: 100.0 mg/kg/injection, schedule: Q04DX002 (ip), vehicle: Klucel (hydroxypropylcellulose) (HPC) 98 % of control | dose: 150.0 mg/kg/injection, schedule: Q01DX009 (ip), vehicle: Klucel (hydroxypropylcellulose) (HPC) 114 % of control | dose: 200.0 mg/kg/injection, schedule: Q04DX002 (ip), vehicle: Klucel (hydroxypropylcellulose) (HPC) 102 % of control | dose: 300.0 mg/kg/injection, schedule: Q01DX009 (ip), vehicle: Klucel (hydroxypropylcellulose) (HPC) 96 % of control | dose: 400.0 mg/kg/injection, schedule: Q04DX002 (ip), vehicle: Klucel (hydroxypropylcellulose) (HPC) 91 % of control

CNC(C)(C)C(SSSC(c1ccc(Cl)cc1)C(C)(C)NC)c1ccc(Cl)cc1 (configuration not stated)
inactive: dose: 12.5 mg/kg/injection, schedule: Q01DX009 (ip), vehicle: saline with Tween-80 103 % of control | dose: 12.5 mg/kg/injection, schedule: Q04DX003 (ip), vehicle: saline with Tween-80 98 % of control | [11] 98 % of control | dose: 25.0 mg/kg/injection, schedule: Q04DX003 (ip), vehicle: saline with Tween-80 100 % of control | [12] 97 % of control | dose: 50.0 mg/kg/injection, schedule: Q04DX003 (ip), vehicle: saline with Tween-80 96 % of control

C=C(C)C(=O)CC(=O)C1CCc2cc(OC)ccc2C1=O (configuration not stated)
inactive: dose: 100.0 mg/kg/injection, schedule: Q01DX009 (ip), vehicle: saline sonified 102 % of control | dose: 200.0 mg/kg/injection, schedule: Q01DX009 (ip), vehicle: saline sonified 96 % of control | dose: 400.0 mg/kg/injection, schedule: Q01DX009 (ip), vehicle: saline sonified 100 % of control

CCCCCC(=O)c1c(O)cc2c(c1O)C(=O)c1c(O)cc(O)cc1C2=O
inactive: [1] 86 % of control | [13] 91 % of control

CN(C)/C=N\N(c1ccccc1)c1ccccc1
inactive: dose: 100.0 mg/kg/injection, schedule: Q04DX002 (ip), vehicle: saline with Tween-80 106 % of control | dose: 200.0 mg/kg/injection, schedule: Q04DX002 (ip), vehicle: saline with Tween-80 98 % of control

COC1OC(CO)C(O)C(NC(=O)NCCCl)C1O (configuration not stated)
inactive: [1] 113 % of control | [8] 111 % of control | [9] 103 % of control

O=C1c2ccccc2C(=O)N1O
inactive: [5] 95 % of control | [14] 90 % of control | [15] 95 % of control

CCCCCC(C)SC#N (configuration not stated)
inactive: [11] 107 % of control | [12] 102 % of control | [6] 88 % of control

O=C(O)c1c(Cl)cccc1[N+](=O)[O-]
inactive: [1] 100 % of control | [8] 96 % of control | [9] 102 % of control

Cc1ccc(S(=O)(=O)OCC2(COS(=O)(=O)c3ccc(C)cc3)CCC2(COS(=O)(=O)c2ccc(C)cc2)COS(=O)(=O)c2ccc(C)cc2)cc1
inactive: dose: 50.0 mg/kg/injection, schedule: Q01DX009 (ip), vehicle: saline 97 % of control | dose: 75.0 mg/kg/injection, schedule: Q01DX001 (ip), vehicle: saline 93 % of control | dose: 100.0 mg/kg/injection, schedule: Q01DX009 (ip), vehicle: saline 89 % of control | dose: 150.0 mg/kg/injection, schedule: Q01DX001 (ip), vehicle: saline 96 % of control | dose: 200.0 mg/kg/injection, schedule: Q01DX009 (ip), vehicle: saline 89 % of control | [13] 93 % of control

COCc1cc(C(C)(C)C)c(O)c(C(C)(C)C)c1
inactive: [2] 94 % of control | dose: 100.0 mg/kg/injection, schedule: Q04DX003 (ip), vehicle: Klucel (hydroxypropylcellulose) (HPC) 98 % of control | [3] 89 % of control | dose: 200.0 mg/kg/injection, schedule: Q04DX003 (ip), vehicle: Klucel (hydroxypropylcellulose) (HPC) 96 % of control | [4] 89 % of control | dose: 400.0 mg/kg/injection, schedule: Q04DX003 (ip), vehicle: Klucel (hydroxypropylcellulose) (HPC) 88 % of control

Cc1ccc(C)c(CCC(C)CCCC(C)C)c1 (configuration not stated)
inactive: [1] 97 % of control | [8] 104 % of control

CCCCCCCC(C(=O)OCC)C(=O)OCC
inactive: [14] 103 % of control | [15] 100 % of control | dose: 400.0 mg/kg/injection, schedule: Q01DX001 (ip), vehicle: carboxymethylcellulose (CMC) 100 % of control

O=[N+]([O-])c1cc2c(nc3ccccn32)c2ccccc12
inactive: [10] 97 % of control | [1] 96 % of control | [8] 97 % of control

CC1(C)OC(=O)C(=Cc2c(Cl)cccc2Cl)C(=O)O1
inactive: [1] 98 % of control | [6] 104 % of control | dose: 100.0 mg/kg/injection, schedule: Q04DX003 (ip), vehicle: saline 99 % of control | [8] 95 % of control | [7] 92 % of control | dose: 200.0 mg/kg/injection, schedule: Q04DX003 (ip), vehicle: saline 94 % of control | [9] 96 % of control | dose: 400.0 mg/kg/injection, schedule: Q04DX003 (ip), vehicle: saline 97 % of control

CC1CC(C)(C)NC(C2CCC=CO2)N1 (configuration not stated)
inactive: dose: 44.0 mg/kg/injection, schedule: Q01DX Z (ip), vehicle: saline 115 % of control | dose: 100.0 mg/kg/injection, schedule: Q01DX Z (ip), vehicle: saline 107 % of control
